Measured values reported in US11161864B2, “Sting agonists” (Venenum Biodesign, LLC, priority 2018, dated 2021).

How the values were obtained:
[1] = biological target: murine STING protein (amino acids 154-378) (Mus musculus (Mouse), UniProt Q3TBT3); assay: Murine STING [3H] 2′,3′-cGAMP scintillation proximity competition binding assay; details: read-out: Murine Binding IC50
[2] = biological target: AQ variant of truncated human STING protein, amino acids 155-379 (Homo sapiens (Human), UniProt Q86WV6, G230A/H232R/R293Q); assay: Human AQ STING [3H] 2′,3′-cGAMP scintillation proximity competition binding assay; details: read-out: Human AQ Binding IC50
Description: (§1) A human STING [^3H] 2′,3′-cGAMP scintillation proximity competition binding assay was utilized to detect binding of compounds to STING protein. […] The protein encoding plasmid contained a HIS tag, followed by an Avi tag and then a SUMO tag, which were followed by the STING coding sequence within the pET-28a (+) vector. The plasmid was transfected into a BL21 (DE3)/BirA E. coli co-expression strain. Protein was purified from the bacterial lysate using a cobalt-affinity column. The purified protein was dialyzed against PBS and then 20% glycerol was added prior to storage at −80° C.
(§2) 2′,3′-cGAMP in assay buffer (50 mM Tris pH 7.5, 100 mM NaCl, 0.1% Fatty Acid Free BSA). Test compounds (2.5 μL) were added to the plate first followed by a 25 μL mixture of STING protein, streptavidin PVT SPA beads (Perkin Elmer) and 10 μL [^3H] 2′,3′-cGAMP. Plates were incubated at room temperature for 18 hrs and read on a Wallac MicroBeta TriLux (Perkin Elmer).

[3] = biological target: wild-type (WT) truncated human STING protein, amino acids 155-379 (Homo sapiens (Human), UniProt Q86WV6, H232R); assay: Human WT STING [3H] 2′,3′-cGAMP scintillation proximity competition binding assay; details: read-out: Human WT Binding IC50
Description: as §1, §2

Sequence of murine STING protein (amino acids 154-378) (Q3TBT3 154-378): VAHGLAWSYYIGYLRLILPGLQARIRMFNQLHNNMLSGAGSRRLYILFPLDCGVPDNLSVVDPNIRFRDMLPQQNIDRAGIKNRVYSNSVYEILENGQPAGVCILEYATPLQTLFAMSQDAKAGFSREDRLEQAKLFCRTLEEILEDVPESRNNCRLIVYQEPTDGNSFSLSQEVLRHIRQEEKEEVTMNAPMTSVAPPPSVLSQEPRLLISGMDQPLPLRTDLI
Sequence of AQ variant of truncated human STING protein, amino acids 155-379 (Q86WV6 155-379 G230A/H232R/R293Q): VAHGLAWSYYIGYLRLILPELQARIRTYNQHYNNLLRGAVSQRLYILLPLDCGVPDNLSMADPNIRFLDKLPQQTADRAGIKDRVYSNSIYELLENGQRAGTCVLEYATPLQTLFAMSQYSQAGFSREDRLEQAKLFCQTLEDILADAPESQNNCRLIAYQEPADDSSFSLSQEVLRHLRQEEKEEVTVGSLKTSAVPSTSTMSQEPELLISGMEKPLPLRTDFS
Sequence of wild-type (WT) truncated human STING protein, amino acids 155-379 (Q86WV6 155-379 H232R): as the sequence (Q86WV6 155-379 G230A/H232R/R293Q) above, with A76G, Q139R counted along it

Row | Compound | IC50 [1] [nM] | IC50 [2] [nM] | IC50 [3] [nM]
1 | Nc1nc2c(ncn2[C@@H]2O[C@@H]3COP(=O)(S)OCCn4c(nc5cncnc54)COP(=O)(S)O[C@@H]2[C@@H]3O)c(=O)[nH]1 (mixture of isomers) [Example 15A, (1R,21R,23R,24R)-23-(2-Amino-6-oxo-6,9-dihydro-1H-purin-9-yl)-24-hydroxy-3,18-disulfanyl-2,4,17,19,22-pentaoxa-7,10,12,14-tetraaza-3lambda5,18lambda5-diphosphatetracyclo[19.2.1.06,14.08,13]tetracosa-6,8,10,12-tetraene-3,18-dione] | < 1000 | – | –
2 | Nc1nc2c(ncn2[C@@H]2O[C@@H]3COP(=O)(S)OCCn4c(nc5cncnc54)COP(=O)(S)O[C@@H]2[C@@H]3F)c(=O)[nH]1 (single isomer, unassigned) [Example 1A] | – | < 1000 | –
3 | Nc1nc2c(ncn2[C@@H]2O[C@@H]3COP(=O)(S)OCCn4c(nc5c(=O)[nH]cnc54)COP(=O)(S)O[C@@H]2[C@@H]3F)c(=O)[nH]1 (single isomer, unassigned) [Example 3B] | 1000 to 9990 | – | –
4 | Nc1nc2c(ncn2[C@@H]2O[C@@H]3COP(=O)(S)OCCn4c(nc5c(=O)[nH]cnc54)COP(=O)(S)O[C@@H]2[C@@H]3F)c(=O)[nH]1 (single isomer, unassigned) [Example 3C] | < 1000 | – | –
5 | Nc1nc2c(ncn2[C@@H]2O[C@@H]3COP(=O)(S)OCCn4c(nc5c(=O)[nH]cnc54)COP(=O)(S)O[C@@H]2[C@@H]3F)c(=O)[nH]1 (single isomer, unassigned) [Example 3D] | 1000 to 9990 | – | –
6 | Nc1nc2c(ncn2[C@@H]2O[C@@H]3COP(=O)(O)OCCn4c(nc5cncnc54)COP(=O)(S)O[C@@H]2[C@@H]3F)c(=O)[nH]1 (single isomer, unassigned) [Example 5A] | < 1000 | – | –
7 | Nc1nc2c(ncn2[C@@H]2O[C@@H]3COP(=O)(O)OCCn4c(nc5cncnc54)COP(=O)(S)O[C@@H]2[C@@H]3F)c(=O)[nH]1 (single isomer, unassigned) [Example 5B] | 1000 to 9990 | – | –
8 | Nc1nc2c(ncn2[C@@H]2O[C@@H]3COP(=O)(S)OCCn4c(nc5cncnc54)COP(=O)(O)O[C@@H]2[C@@H]3F)c(=O)[nH]1 (single isomer, unassigned) [Example 6A] | < 1000 | – | –
9 | Nc1nc2c(ncn2[C@@H]2O[C@@H]3COP(=O)(S)OCCn4c(nc5cncnc54)COP(=O)(O)O[C@@H]2[C@@H]3F)c(=O)[nH]1 (single isomer, unassigned) [Example 6B] | < 1000 | – | –
10 | Nc1nc2c(ncn2[C@@H]2O[C@@H]3COP(=O)(S)OCCn4c(nc5cnc(C6CC6)nc54)COP(=O)(S)O[C@@H]2[C@@H]3F)c(=O)[nH]1 (single isomer, unassigned) [Example 12C] | < 1000 | – | –
11 | Nc1nc2c(ncn2[C@@H]2O[C@@H]3COP(=O)(S)OCCn4c(nc5cnc(C6CC6)nc54)COP(=O)(S)O[C@@H]2[C@@H]3F)c(=O)[nH]1 (single isomer, unassigned) [Example 12D] | 1000 to 9990 | – | –
12 | Nc1nc2ncn([C@@H]3O[C@@H]4COP(=O)(S)OCCn5c(nc6cc(Cl)cnc65)COP(=O)(S)O[C@@H]3[C@@H]4F)c2c(=O)[nH]1 (single isomer, unassigned) [Example 13A] | < 1000 | – | –
13 | Nc1nc2c(ncn2[C@@H]2O[C@@H]3COP(=O)(S)OCCn4c(nc5cc(Cl)cnc54)COP(=O)(S)O[C@@H]2[C@@H]3F)c(=O)[nH]1 (single isomer, unassigned) [Example 14A] | < 1000 | – | –
14 | Nc1nc2c(ncn2[C@@H]2O[C@@H]3COP(=O)(S)OCCn4c(nc5cc(Cl)cnc54)COP(=O)(S)O[C@@H]2[C@@H]3F)c(=O)[nH]1 (single isomer, unassigned) [Example 14C] | < 1000 | – | –
15 | Nc1nc2c(ncn2[C@@H]2O[C@@H]3COP(=O)(S)OCCn4c(nc5cc(Cl)cnc54)COP(=O)(S)O[C@@H]2[C@@H]3F)c(=O)[nH]1 (single isomer, unassigned) [Example 14D] | < 1000 | – | –
16 | Nc1nc2c(ncn2[C@@H]2O[C@@H]3COP(=O)(S)OCCn4c(nc5cncnc54)COP(=O)(S)O[C@@H]2[C@@H]3O)c(=O)[nH]1 (single isomer, unassigned) [Example 15C] | < 1000 | – | –
17 | Nc1nc2c(ncn2[C@@H]2O[C@@H]3COP(=O)(S)OCCn4c(nc5cncnc54)COP(=O)(S)O[C@@H]2[C@@H]3O)c(=O)[nH]1 (single isomer, unassigned) [Example 15D] | < 1000 | – | –
18 | Nc1nc2c(ncn2[C@@H]2O[C@@H]3COP(=O)(S)OCCn4nc(-c5cncs5)nc4COP(=O)(S)O[C@@H]2[C@@H]3F)c(=O)[nH]1 (single isomer, unassigned) [Example 16A] | < 1000 | – | –
19 | Nc1nc2c(ncn2[C@@H]2O[C@@H]3COP(=O)(S)OCCn4nc(-c5cncs5)nc4COP(=O)(S)O[C@@H]2[C@@H]3F)c(=O)[nH]1 (single isomer, unassigned) [Example 16C] | < 1000 | – | –
20 | Nc1nc2c(ncn2[C@@H]2O[C@@H]3COP(=O)(S)OCCn4nc(-c5cncs5)nc4COP(=O)(S)O[C@@H]2[C@@H]3F)c(=O)[nH]1 (single isomer, unassigned) [Example 16D] | < 1000 | – | –
21 | Nc1nc2c(ncn2[C@@H]2O[C@@H]3COP(=O)(S)OCCn4c(nc5cnccc54)COP(=O)(S)O[C@@H]2[C@@H]3F)c(=O)[nH]1 (single isomer, unassigned) [Example 17C] | < 1000 | – | –
22 | Nc1nc2c(ncn2[C@@H]2O[C@@H]3COP(=O)(S)OCCn4c(nc5cncnc54)COP(=O)(S)O[C@@H]2[C@H]3F)c(=O)[nH]1 (single isomer, unassigned) [Example 25B] | – | – | 10000 to 100000
23 | Nc1nc2c(ncn2[C@@H]2O[C@@H]3COP(=O)(S)OCCn4c(nc5cncnc54)COP(=O)(S)O[C@@H]2[C@H]3F)c(=O)[nH]1 (single isomer, unassigned) [Example 25D] | – | < 1000 | < 1000
24 | C[C@H]1Cn2c(nc3cncnc32)COP(=O)(S)O[C@@H]2[C@H](F)[C@@H](COP(=O)(S)O1)O[C@H]2n1cnc2c(=O)[nH]c(N)nc21 (single isomer, unassigned) [Example 33C] | – | – | 10000 to 100000
25 | Nc1nc2c(ncn2[C@@H]2O[C@@H]3COP(=O)(O)OCCCn4c(nc5cncnc54)COP(=O)(O)O[C@@H]2[C@@H]3O)c(=O)[nH]1 [Example 2, (1R,22R,24R,25R)-24-(2-Amino-6-oxo-6,9-dihydro-1H-purin-9-yl)-3,19,25-trihydroxy-2,4,18,20,23-pentaoxa-710,122,14-tetraaza-3lambda5,19lambda5-diphosphatetracyclo[20.2.1.06,14.08,13]pentacosa-6,8(13),9,11-tetraene-3,19-dione] | – | 10000 to 100000 | 10000 to 100000
26 | Nc1nc2c(ncn2[C@@H]2O[C@@H]3COP(=S)(S)OCCn4c(nc5cncnc54)COP(=O)(S)O[C@@H]2[C@@H]3F)c(=O)[nH]1 (stereo partly drawn) [Example 39, (1S,21R,23R,24R)-23-(2-Amino-6-oxo-6,9-dihydro-1H-purin-9-yl)-24-fluoro-3,18-disulfanyl-18-sulfanylidene-2,4,17,19,22-pentaoxa-7,10,12,14-tetraaza-3lambda5,18lambda5-diphosphatetracyclo[19.2.1.06,14.08,13]tetracosa-6,8(13),9,11-tetraen-3-one] | < 1000 | – | –

More lines, main results first:

Row | IC50 [1] [nM] | Compound | IC50 [2] [nM] | IC50 [3] [nM]
27 | 10000 to 100000 | C[C@H]1COP(=O)(S)OC[C@H]2O[C@@H](n3cnc4c(=O)[nH]c(N)nc43)[C@H](OP(=O)(S)OCc3nc4cncnc4n31)[C@@H]2F (single isomer, unassigned) [Example 20D] | – | –
28 | 10000 to 100000 | Nc1nc2c(nc3n2CCOP(=O)(S)OC[C@H]2O[C@@H](n4cnc5c(N)ncnc54)[C@H](OP(=O)(S)OC3)[C@@H]2F)c(=O)[nH]1 (single isomer, unassigned) [Example 23D] | – | –
29 | < 1000 | Nc1nc2c(nnn2[C@@H]2O[C@@H]3COP(=O)(S)OCCn4c(nc5cncnc54)COP(=O)(S)O[C@@H]2[C@@H]3F)c(=O)[nH]1 (single isomer, unassigned) [Example 24A] | – | –
30 | 10000 to 100000 | Nc1nc2c(nnn2[C@@H]2O[C@@H]3COP(=O)(S)OCCn4c(nc5cncnc54)COP(=O)(S)O[C@@H]2[C@@H]3F)c(=O)[nH]1 (single isomer, unassigned) [Example 24B] | – | –
31 | < 1000 | Nc1nc2c(nnn2[C@@H]2O[C@@H]3COP(=O)(S)OCCn4c(nc5cncnc54)COP(=O)(S)O[C@@H]2[C@@H]3F)c(=O)[nH]1 (single isomer, unassigned) [Example 24C] | – | –
32 | < 1000 | Nc1nc2c(nnn2[C@@H]2O[C@@H]3COP(=O)(S)OCCn4c(nc5cncnc54)COP(=O)(S)O[C@@H]2[C@@H]3F)c(=O)[nH]1 (single isomer, unassigned) [Example 24D] | – | –
33 | 1000 to 9990 | Nc1nc2c(ncn2[C@@H]2O[C@@H]3COP(=O)(S)OCCn4nc(-c5ccncc5)nc4COP(=O)(S)O[C@@H]2[C@@H]3F)c(=O)[nH]1 (single isomer, unassigned) [Example 34B] | – | –
34 | < 1000 | Nc1nc2c(ncn2[C@@H]2O[C@@H]3COP(=O)(S)OCCn4nc(-c5ccncc5)nc4COP(=O)(S)O[C@@H]2[C@@H]3F)c(=O)[nH]1 (single isomer, unassigned) [Example 34C] | – | –
35 | 1000 to 9990 | Nc1nc2c(ncn2[C@@H]2O[C@@H]3COP(=O)(S)OCCn4nc(-c5ccncc5)nc4COP(=O)(S)O[C@@H]2[C@@H]3F)c(=O)[nH]1 (single isomer, unassigned) [Example 34D] | – | –
